Values joined by “and” are separate entries in the source; they are usually repeats but may differ in a detail not shown here. Equal entries are not always repeated.
Columns and labels:
platelets [1] = experiment: Ex-vivo platelet aggregation in whole blood; design: species or system cynomolgus monkeys; settings: oral dose of 0.1 mg/kg
dog Purkinje fibers = type: cell-based
[2] = monkey, in vivo
[3] = Phase 2 study (P03573): bleeding in primary (PCI) cohort; type: in vivo, humans; settings: for non-TIMI bleeding: Arterial Access, patients (%) / non-TIMI bleeding: Contusion/Bruise, patients (%) / non-TIMI bleeding: Expistaxis, patients (%) / non-TIMI bleeding: GI, patients (%) / non-TIMI bleeding: Genitourinary, patients (%) / non-TIMI bleeding: Gingival, patients (%) / non-TIMI bleeding: Incidental Cuts, patients (%) / non-TIMI bleeding: Vascular Puncture, patients (%): primary PCI cohort; for Any bleed, patients (%) / TIMI Major bleeding, patients (%) / TIMI Major/Minor bleeding, patients (%) / non-TIMI bleeding (overall), patients (%) / TIMI Minor bleeding, patients (%): primary cohort (PCI), 60 days
Text: (§1) The behavior of SCH 530348 in humans was further studied in a Phase 2 clinical development program. A key safety issue for SCH 530348 is the potential for incremental bleeding when added to standard of care with other oral antiplatelet therapies as well as parenteral antithrombotics. Therefore, a single Phase 2 study (P03573) was completed to evaluate the safety of SCH 530348 in patients at high risk of bleeding events, i.e., those patients undergoing non-emergent PCI (percutaneous coronary intervention). The goals of this Phase 2 study were to: • Evaluate the safety of SCH 530348 in addition to standard of care with respect to TIMI major and minor bleeding; and, • Observe the effects of SCH 530348 on major adverse cardiac events (“MACE”) in patients successfully completing an interventional procedure.
(§2) The primary endpoint (directed to evaluating safety) was the combined […] (“TIMI”) major and TIMI minor bleeding over sixty days in the primary evaluable cohort. Though the study was not powered to evaluate efficacy, a secondary endpoint (directed to evaluating efficacy) was the incidence of the composite of death and major adverse cardiac events (“MACE”) in the primary cohort. MACE includes myocardial infarction, urgent revascularization, and ischemia requiring hospitalization. Pharmacokinetics and pharmacodynamics were assessed at selected sites across the treatment groups. Other secondary endpoints included the incidence of TIMI major and minor bleeding in the secondary evaluable cohort i.e., those individuals who received the loading dose only.

[4] = Phase 2 study (P03573): bleeding in secondary cohort (medically treated); type: in vivo, humans
Text: as §1, §2
The secondary cohort consisted of non-PCI patients who were treated medically (n=382) or underwent CABG (n=75). […] These included two vascular access site and one post-operative (surgical hip replacement) bleed.

platelets [5] = experiment: Pharmacodynamic substudy: TRAP induced platelet aggregation (light aggregometry); type: in vivo, humans; settings: for Tested population achieving clinically relevant inhibition of platelet aggregation: thirty and sixty days; for Maximum inhibition of TRAP-induced platelet aggregation: 1-2 hours post dose
Description: (§3) A pharmacodynamic substudy incorporating light aggregometry was performed under stringent physiologic conditions and read by a central core laboratory. […] The term “therpeutically effective amount of a thrombin receptor antagonist” will be understood to mean that quantity of the thrombin receptor antagonist sufficient to achieve at least 80% inhibition of TRAP mediated platelet aggregation.

platelets [6] = experiment: Arachidonic acid (AA)-induced platelet aggregation; type: in vivo, humans; settings: loading and maintenance doses
Description: as §3
(§4) Similarly, there is no effect on arachidonic acid (“AA”) -induced platelet aggregation (see FIGS. 16 and 17) or collagen-induced platelet aggregation (see FIGS. 18-21).

platelets [7] = experiment: Collagen-induced platelet aggregation; type: in vivo, humans; settings: collagen 5 and 50 μg/ml; loading and maintenance doses
Description: as §3, §4

platelets [8] = experiment: Platelet activation (expression of P-selectin or CD40 ligand); design: species or system humans; settings: in vivo
[9] = Bleeding time by modified Ivy method; design: species or system humans; settings: in vivo

CCOC(=O)N[C@@H]1CC[C@@H]2[C@@H](C1)C[C@H]1C(=O)O[C@H](C)[C@H]1[C@H]2/C=C/c1ccc(-c2cccc(F)c2)cn1.O=S(=O)(O)O [SCH 530348, ethyl [(1R,3aR,4aR,6R,8aR,9S,9aS)-9-[(E)-2-[5-(3-fluorophenyl)-2-pyridinyl]ethenyl]-dodecahydro-1-methyl-3-oxonaphtho[2,3-c]furan-6-yl] carbamate bisulfate]
Inhibition of TRAP-driven platelet aggregation (ex-vivo) (platelets [1]): 100%
QT prolongation based on action potential duration (dog Purkinje fibers): no evidence of QT prolongation
QT prolongation [2]: no evidence of QT prolongation
non-TIMI bleeding: Arterial Access, patients (%) ([3]; 10 mg loading dose): 11%
non-TIMI bleeding: Contusion/Bruise, patients (%) ([3]; 10 mg loading dose): 10%
non-TIMI bleeding: Expistaxis, patients (%) ([3]; 10 mg loading dose): 6%
non-TIMI bleeding: GI, patients (%) ([3]; 10 mg loading dose): 2 (2%)
non-TIMI bleeding: Genitourinary, patients (%) ([3]; 10 mg loading dose): 3%
non-TIMI bleeding: Gingival, patients (%) ([3]; 10 mg loading dose): 2 (2%)
non-TIMI bleeding: Incidental Cuts, patients (%) ([3]; 10 mg loading dose): 4%
non-TIMI bleeding: Vascular Puncture, patients (%) ([3]; 10 mg loading dose): 12%
non-TIMI bleeding: Arterial Access, patients (%) ([3]; 20 mg loading dose): 17%
non-TIMI bleeding: Contusion/Bruise, patients (%) ([3]; 20 mg loading dose): 17%
non-TIMI bleeding: Expistaxis, patients (%) ([3]; 20 mg loading dose): 5%
non-TIMI bleeding: GI, patients (%) ([3]; 20 mg loading dose): 1 (1%)
non-TIMI bleeding: Genitourinary, patients (%) ([3]; 20 mg loading dose): 5%
non-TIMI bleeding: Gingival, patients (%) ([3]; 20 mg loading dose): 1 (1%)
non-TIMI bleeding: Incidental Cuts, patients (%) ([3]; 20 mg loading dose): 13%
non-TIMI bleeding: Vascular Puncture, patients (%) ([3]; 20 mg loading dose): 18%
non-TIMI bleeding: Arterial Access, patients (%) ([3]; 40 mg loading dose): 14%
non-TIMI bleeding: Contusion/Bruise, patients (%) ([3]; 40 mg loading dose): 18%
non-TIMI bleeding: Expistaxis, patients (%) ([3]; 40 mg loading dose): 5%
non-TIMI bleeding: GI, patients (%) ([3]; 40 mg loading dose): 3%
non-TIMI bleeding: Genitourinary, patients (%) ([3]; 40 mg loading dose): 2%
non-TIMI bleeding: Gingival, patients (%) ([3]; 40 mg loading dose): 1%
non-TIMI bleeding: Incidental Cuts, patients (%) ([3]; 40 mg loading dose): 10%
non-TIMI bleeding: Vascular Puncture, patients (%) ([3]; 40 mg loading dose): 15%
non-TIMI bleeding: Arterial Access, patients (%) ([3]; All SCH 530348): 14%
non-TIMI bleeding: Contusion/Bruise, patients (%) ([3]; All SCH 530348): 15%
non-TIMI bleeding: Expistaxis, patients (%) ([3]; All SCH 530348): 5%
non-TIMI bleeding: GI, patients (%) ([3]; All SCH 530348): 2%
non-TIMI bleeding: Genitourinary, patients (%) ([3]; All SCH 530348): 3%
non-TIMI bleeding: Gingival, patients (%) ([3]; All SCH 530348): 1%
non-TIMI bleeding: Incidental Cuts, patients (%) ([3]; All SCH 530348): 9%
non-TIMI bleeding: Vascular Puncture, patients (%) ([3]; All SCH 530348): 15%
Any bleed, patients (%) ([3]; 10 mg loading dose): 37%
TIMI Major bleeding, patients (%) ([3]; 10 mg loading dose): 1.6%
TIMI Major/Minor bleeding, patients (%) ([3]; 10 mg loading dose): 1.6%
non-TIMI bleeding (overall), patients (%) ([3]; 10 mg loading dose): 36%
Any bleed, patients (%) ([3]; 20 mg loading dose): 43%
TIMI Major/Minor bleeding, patients (%) ([3]; 20 mg loading dose): 2.5%
TIMI Minor bleeding, patients (%) ([3]; 20 mg loading dose): 2.5%
non-TIMI bleeding (overall), patients (%) ([3]; 20 mg loading dose): 43%
Any bleed, patients (%) ([3]; 40 mg loading dose): 45%
TIMI Major bleeding, patients (%) ([3]; 40 mg loading dose): 0.6%
TIMI Major/Minor bleeding, patients (%) ([3]; 40 mg loading dose): 4.0%
TIMI Minor bleeding, patients (%) ([3]; 40 mg loading dose): 3.4%
non-TIMI bleeding (overall), patients (%) ([3]; 40 mg loading dose): 42% and 43%
Any bleed, patients (%) ([3]; All SCH 530348): 42%
TIMI Major bleeding, patients (%) ([3]; All SCH 530348): 0.7%
TIMI Minor bleeding, patients (%) ([3]; All SCH 530348): 2.1%
non-TIMI bleeding (overall), patients (%) ([3]; All SCH 530348): 41% and 40%
TIMI Major/Minor bleeding, patients (%) ([3]; All SCH 530348, primary safety endpoint): 2.8%
Any bleed, patients (%) ([4]; 10 mg loading dose): 8%
non-TIMI bleeding, patients (%) ([4]; 10 mg loading dose): 8%
Any bleed, patients (%) ([4]; 20 mg loading dose): 12 (12%)
TIMI Major/Minor bleeding, patients (%) ([4]; 20 mg loading dose): 2 (2%)
TIMI Minor bleeding, patients (%) ([4]; 20 mg loading dose): 2 (2%)
non-TIMI bleeding, patients (%) ([4]; 20 mg loading dose): 11 (11%)
Any bleed, patients (%) ([4]; 40 mg loading dose): 10%
TIMI Major/Minor bleeding, patients (%) ([4]; 40 mg loading dose): 1 (1%)
TIMI Minor bleeding, patients (%) ([4]; 40 mg loading dose): 1 (1%)
non-TIMI bleeding, patients (%) ([4]; 40 mg loading dose): 10%
Any bleed, patients (%) ([4]; All SCH 530348): 10%
TIMI Major/Minor bleeding, patients (%) ([4]; All SCH 530348): 1%
TIMI Minor bleeding, patients (%) ([4]; All SCH 530348): 1%
non-TIMI bleeding, patients (%) ([4]; All SCH 530348): 10%
Tested population achieving clinically relevant inhibition of platelet aggregation (platelets [5]; 1.0 mg/day maintenance): 100%
Tested population achieving clinically relevant inhibition of platelet aggregation (platelets [5]; 2.5 mg/day maintenance): 100%
Maximum inhibition of TRAP-induced platelet aggregation (platelets [5]; 20 mg): > 80%
Time to therapeutically effective levels (at least 80%) of platelet inhibition (platelets [5]; 40 mg loading dose): in as little as one hour
Tested population with clinically relevant platelet aggregation inhibition within 2 hours (platelets [5]; 40 mg loading dose (only this dose)): more than 90%
Patients with ≧80% inhibition of TRAP induced platelet aggregation (platelets [5]; 40 mg loading dose, 1 hour): Approximately 68%
Patients with ≧80% inhibition of TRAP induced platelet aggregation (platelets [5]; 40 mg loading dose, 1.5 hours): ~82%
Patients with ≧80% inhibition of TRAP induced platelet aggregation (platelets [5]; 40 mg loading dose, 2 hours): ~96%
Maximum inhibition of TRAP-induced platelet aggregation (platelets [5]; 40 mg): > 80%
Inhibition of platelet aggregation at thirty and sixty days (platelets [5]; all three maintenance doses (0.5, 1.0, 2.5 mg)): clinically relevant inhibition of platelet aggregation
Inhibition of TRAP-induced platelet aggregation, dose dependency (platelets [5]; in vivo): dose-related inhibition
Inhibition of TRAP-induced platelet aggregation (platelets [5]; multiple doses of 1 mg/day): significantly inhibited
Inhibition of TRAP-induced platelet aggregation (platelets [5]; single doses as low as 5 mg): significantly inhibited
Effect on arachidonic acid (AA)-induced platelet aggregation (platelets [6]): no effect
Effect on collagen-induced platelet aggregation (platelets [7]): no effect
Platelet activation (expression of P-selectin or CD40 ligand) (platelets [8]): without activating platelets
Increasing bleeding time as measured by a modified Ivy method [9]: without

— patent US20080234236A1, “REDUCTION OF ADVERSE EVENTS AFTER PERCUTANEOUS INTERVENTION BY USE OF A THROMBIN RECEPTOR ANTAGONIST” (priority 2007, published 2008)
